Reference: patent US20090099191A1, “INHIBITION OF NF-KB” (priority 2006, published 2009)

Assays:
DNA [1] = assay: DNA damaging activity
tumor and normal cells = assay: Toxicity to tumor versus normal cells; format: cell-based; conditions: in vitro and in vivo
Protocol: 5×10^3 of cells were plated in 6 well plates and treated with different concentrations of drugs for 24 hours. Then fresh drug-free medium was added. Number of colonies was estimated after 5-6 days of incubation. Cell survival was estimated as a percentage of intensity of methylene blue staining of treated cells, comparing with untreated control (methylene blue from stained colonies was extracted by 0.1% of SDS and quantitated spectrophotometrically).

[2] = tested on: variety of tumor cell types; assay: p53 activation and p53-dependent killing of tumor cell types; format: cell-based; conditions: besides RCC
NF-κB = NF-κB activity in tumor cells; format: cell-based
[3] = tested on: p53 transactivation in RCC45ConALacZ cells; assay: RCC cell-based p53-responsive reporter (ConALacZ) screening
Excerpt: Reporter cell lines with p53 responsive β-galactosidase were described in Gurova, et al. (2004). Cancer Res 64, 1951-1958. Reporter cell lines with p53 responsive luciferase was generated by transfection of p21-ConALuc plasmid with following selection on G418. Reporter cell lines with NF-κB-dependent luciferase were obtained by cotransfection of pNF-κBLuc and pEGFP-mito (Clontech) plasmids followed by selection on G418 (marker provided by pEGFP-mito plasmid). Reporter cell lines with myc, or Clock/Bmal responsive reporters were kindly provided by C. Burkhart and M. Antoch (Cleveland Clinic Foundation, OH).
2×10^4 of RCC45ConALacZ cells were plated into wells of 96 well plates in 200 μL of phenol-red free RPMI medium with standard additives. […] After 3 hours of incubation at 37° C., β-galactosidase activity was estimated by reading absorbance values Wallack 1420 plate reader (Perkin Elmer) at λ=430 nm.
For cotransfection set-up, 2×10^5 cells were plated into 6 well plates and, after overnight incubation, transfected with Lipofectamin Plus reagent (Gibco BRL) with 0.5 μg of reporter plasmids (p21-ConALuc or pNF-κBLuc) in combination with different concentrations of p53, Arf, Ss-IκB, or siHDM2 expressing plasmids. […] Luminometric and colorimetric reactions were read on the Wallack 1420 plate reader (Perkin Elmer). […]

DNA [4] = conditions: intercalation; cited from earlier work

Q: With `Nc1c2ccccc2nc2ccccc12` [Compound 9AA, 9-aminoacridine] as the molecule, how does the DNA damaging activity (DNA [1]) read?
A: did not show DNA damaging activity

Q: What about the “toxicity to tumor versus normal cells” value (tumor and normal cells) of the same molecule?
A: more toxic to tumor than to normal cells

Q: And the p53-dependent killing [2]?
A: p53-dependent killing

Q: And the p53 activation [2]?
A: capable of p53 activation

Q: What about the “effect on stimulated and basal constitutive NF-κB activity” value (NF-κB) of the same molecule?
A: block stimulated NF-κB activity and also effectively reduce basal levels of constitutive NF-κB activity

Q: Which results are given for `CCN(CC)CCCC(C)Nc1c2ccc(Cl)cc2nc2ccc(OC)cc12` (stereo not drawn) [Quinacrine]?
A: p53 reactivation relative to doxorubicin ([3]; RCC45 cells, library of 59 derivatives of compound 30d9, fold of p53 activation over the effect of 2 μM of doxorubicin (FIG. 3B)): intermediate level of activity; DNA damaging activity (DNA [1]): did not show DNA damaging activity; toxicity to tumor versus normal cells (tumor and normal cells): more toxic to tumor than to normal cells; p53-dependent killing [2]: p53-dependent killing; p53 activation [2]: capable of p53 activation

Q: Which “identified as p53 activator / hit in reporter screen” value ([3]; RCC45ConALacZ cell-based reporter assay) does the source give for `Cc1c2ccncc2c(C)c2c1[nH]c1ccccc12` [ellipticine] here?
A: identified

Q: And the DNA binding affinity (DNA [4])?
A: 10^6 M^−1
